Experimental data taken from patent US20260273018A1, “PHARMACEUTICAL COMPOSITION CONTAINING SPECIFIC SELF-ASSEMBLING PEPTIDE RADA16 FOR TREATING OR PREVENTING LOWER GASTROINTESTINAL DISEASES SUCH AS INFLAMMATORY BOWEL DISEASE” (3-D Matrix, Ltd., priority 2021, published 2026).

Assays:
[1] = test system: DSS-induced ulcerative colitis model; test: Transanal administration experiment on DSS-induced ulcerative colitis model mice (DAI, body weight, large intestine length, general condition); assay type: in vivo
Procedure: A mouse was made to drink an aqueous solution of 2.5 w/v % dextran sulfate sodium, and the efficacy of a specific peptide having the amino acid sequence indicated by SEQ ID NO 1 on the induced ulcerative colitis model is retrieved by Disease Activity Index. Similarly, Mucosta (registered trademark) and Selbex (registered trademark), which are therapeutic agents for duodenal ulcers, were administered alone or in combination with a peptide having the amino acid sequence indicated by SEQ ID NO 1, and Pentasa (registered trademark) and Rectabul (registered trademark), which are therapeutic agents for ulcerative colitis, were administered alone to compare and study the efficacy. Furthermore, the plasma and removed large intestine collected on the final day of the experiment were shipped to a test contractor. • Dextran sulfate sodium aqueous solution drink period (preparation of dextran sulfate sodium-induced ulcerative colitis model): • Nov. 16, 2019 to Nov. 25, 2019 • Administration period: Nov. 22, 2019 to Nov. 24, 2019 • Disease Activity Index (DAI: Evaluation of body weight, properties, and occult blood): • November 16, November 22, and Nov. 25, 2019 • Blood collected: Nov. 25, 2019 • Large intestine removed and length measured: • Nov. 25, 2019 • Experiment end date: Nov. 25, 2019
• Species: Mouse (SPF) • Strain: BALB/cAnNCrlCrlj • Source: Charles River Laboratories Japan (Atsugi Breeding Center) • Reason for selection of the test system: The mouse strain is widely used for toxicity and drug efficacy tests. • Sex and order (purchase) count: Male: 60 • Age at purchase: 9 weeks • Quarantine and habituation: Quarantine was carried out for six days from the date of animal purchase. During the quarantine period, the general condition was observed daily and body weight was measured on the 1st day (purchase date), 3rd day, and 7th day (quarantine end date). In addition, the habituation period was from the date of animal purchase to the day before the start of drinking the DSS aqueous solution, the general condition was also observed once a day after the quarantine period, and body weight was measured on a grouping day. • Age at the start of test substance administration: 11 weeks
• Administration method: Performed under anesthesia by inhalation of Japanese pharmacopeia isoflurane (Mylan Inc., hereinafter abbreviated as isoflurane). • If there is a clot of feces in the rectum, the animal was massaged, and the feces were removed as much as possible. • The administration solution was aspirated into a 1 mL polypropylene syringe cylinder (sterilized disposable product), inserted through the anus part using a mouse sonde (about 1 cm from the tip), and slowly administered transanally. […] Then, it was slowly pulled out and liquid that leaked from the anus part was wiped off. It should be noted that mixing was performed by lightly inverting by hand so that the test substance administration solution and the Rectabul administration solution would not have large bubbles as much as possible and so that the other comparative control substance administration solution would not foam up, and then each solution was aspirated into the syringe cylinder. • Amount of administration liquid: 0.7 mL • Reason for selection: The method of administration to mice is common and appropriate.
• Animal subjects: All test animals after grouping (excluding non-treatment group) • Model production period: Day 1-10 • Model production method: On the day that drinking of the DSS aqueous started (between 13:00 and 14:00), the water in the glass or polycarbonate water dispenser installed in the cage was changed to a DSS 2.5 w/v % aqueous solution, and the solution was freely ingested. […]

[2] = test system: DSS-induced ulcerative colitis model, large intestine tissue; test: Histopathological evaluation of colon HE-stained specimens (Histological Colitis Score); assay type: in vivo, Mouse; settings: compared to the negative control; scores only in the FIGURE
Procedure: A histopathological evaluation of the colon HE-stained specimens prepared in example 1 was performed. • 1. […] Histopathological evaluation • Blind evaluation of a pathology score was carried out in accordance with the scoring below for two pieces of the upper and lower parts of the large intestine for each specimen (36 pieces in total). Each score of (1), (2), (3) is multiplied by (4), and the total of these is defined as a “Histological Colitis Score.”^1) It should be noted that the lower part of the large intestine is located on the […], and • the upper part of the large intestine is located to the right thereof.
• 1) Dieleman LA., et al. Chronic experimental colitis induced by dextran sulfate sodium (DSS) is characterized by Th1 and Th2 cytokines. Clin Exp Immunol. 1998.

[3] = Day 10, transanal 0.7 mL/head on Days 7-9
[4] = observation period, considered due to progress of DSS colitis

Sequence: RADARADARADARADA
- average DAI score, Day 7 ([1]; Day 7 of DSS 2.5 w/v % drinking (first treatment day), group average, 0.7 mL/head transanal once a day on Days 7, 8, 9): 2.8
- cases scoring 1 "+" for fecal occult blood (visual) ([1]; Day 10): one case
- length of the large intestine, end part of the ileum to just before the rectum (average) [1, 3]: 45.52 mm
- length of the large intestine, end part of the ileum to the anus part (average) [1, 3]: 75.71 mm
- average DAI score, Day 10 ([1]; Day 10 of DSS drinking, after transanal 0.7 mL/head on Days 7, 8, 9, group average): 2.8
- death ([1]; found dead on Day 10, cause considered progression of DSS-induced ulcerative colitis): a death was observed
- general condition: anal bleeding (cases) ([1]; observation period): one case
- general condition: black stool (cases) ([1]; observation period): one case
- general condition: perianal hair stains (pale red) (cases) ([1]; observation period): one case
- general condition: piloerection (cases) ([1]; observation period): one case
- general condition: irregular respiration (cases) [1, 4]: one to three cases
- general condition: small amount of defecation (cases of 5 animals) [1, 4]: one to three cases
- DAI score on Day 10 compared to Day 7 ([1]; result in words, control group increased): did not increase compared to Day 7
- body weight loss on Day 10 compared to Day 7 ([1]; result in words, control group lost further weight): no further body weight loss was observed compared to Day 7
- histological score: suppression of intestinal tissue inflammation [2]: had an effect of suppressing intestinal tissue inflammation compared to the negative control
